Results taken from patent publication US10668159B2, “Anti-methanogenic compositions and uses thereof” (Cedars-Sinai Medical Center, priority 2014, dated 2020).

Tests used:
[1] = pylorus-ligated rats, within 30 min; cited from earlier work
M. smithii = experiment: Lovastatin gavage in M. smithii colonized high-fat diet rats, qPCR of bowel segments; assay type: in vivo, Sprague-Dawley rats; settings: 1.5 mg/rat gavaged daily for 10 days
Experimental: The rats were assessed for increased M. smithii by qPCR before and after the diet, and then divided into 3 groups. Group 1 was given lovastatin in its lactone form, Group 2 was given lovastatin hydroxy acid (each 1.5 mg/rat), and Group 3 was gavaged with a placebo. Each group was gavaged daily for 10 days. Three day stool collections were performed to assess average stool wet weight and daily variability prior to commencing the high fat diet, after 7 weeks of high-fat diet, and the final days of the lovastatin gavage (still on high-fat diet). On day 10 of the gavage, rats were euthanized and DNA was extracted from contents of ligated bowel segments (duodenum, jejunum, ileum, cecum and left colon). qPCR was performed using primers for total luminal bacteria and M. smithii.

[2] = Binary stress testing of 1:1 lovastatin/excipient mixtures, HPLC; settings: range of temperature and humidity conditions, 7 days
Experimental: The compatibility of lovastatin drug substance with formulation excipients was evaluated in binary stress testing studies where 1:1 mixtures of lovastatin and each excipient were stored for 7 days under different conditions of temperature and relative humidity (RH). Samples were analyzed by HPLC (based on USP methods) at day 0 and day 7.

[3] = test system: human and rat fecal bacterial enzyme fractions; settings: over a 12 h period; cited from earlier work
[4] = after oral administration; cited from earlier work

Row | Structure (SMILES) | fraction of an intragastric dose that exited the gastric juice [1] | M. smithii levels in the colon (M. smithii) | stability in binary stress testing [2] | ratio of M. smithii to total bacteria in the ileum (M. smithii; versus placebo) | loss of lovastatin lactone [3] | pre-portal hydrolysis in vivo [4]
1 | CC[C@H](C)C(=O)O[C@H]1C[C@@H](C)C=C2C=C[C@H](C)[C@H](CC[C@@H](O)C[C@@H](O)CC(=O)O)[C@H]21 [lovastatin β-hydroxyacid] | ~30% | unaffected |  |  |  | 
2 | CC[C@H](C)C(=O)O[C@H]1C[C@@H](C)C=C2C=C[C@H](C)[C@H](CC[C@@H]3C[C@@H](O)CC(=O)O3)[C@H]21 [Lovastatin] | ~30% | unaffected | stable | reduced | 8-19% | ~10%
